Laboratory results from patent US8835425B2, “Use of selective GABA A α5 negative allosteric modulators for the treatment of central nervous system conditions” (Hoffmann-La Roche Inc., priority 2010, dated 2014).
Like-named read-outs stand apart in the source and are kept apart here.

How the values were obtained:
human GABA A α5β3γ2 [1] = molecular target: T1, human GABA A α5β3γ2 (Homo sapiens, UniProt P18507+P31644); experiment: [3H]flumazenil competition binding, HEK293 cells expressing human α5β3γ2; parameters: expressed in transfected cells; host or cells: HEK293
human GABA A α1β2/3γ2 [2] = molecular target: T2, human GABA A α1β2/3γ2 (Homo sapiens, UniProt P14867+P18507); experiment: [3H]flumazenil competition binding, HEK293 cells expressing human α1β2/3γ2; parameters: expressed in transfected cells; host or cells: HEK293; conditions: for hKi α1/hKi α5: binding selectivity ratio
human GABA A α2β3γ2 [3] = molecular target: T3, human GABA A α2β3γ2 (Homo sapiens, UniProt P18507+P47869); experiment: [3H]flumazenil competition binding, HEK293 cells expressing human α2β3γ2; parameters: expressed in transfected cells; host or cells: HEK293; conditions: for hKi α2/hKi α5: binding selectivity ratio
human GABA A α3β3γ2 [4] = molecular target: T4, human GABA A α3β3γ2 (Homo sapiens, UniProt P18507+P34903); experiment: [3H]flumazenil competition binding, HEK293 cells expressing human α3β3γ2; parameters: expressed in transfected cells; host or cells: HEK293; conditions: for hKi α3/hKi α5: binding selectivity ratio
human GABA A α5β3γ2 [5] = molecular target: T1, human GABA A α5β3γ2; experiment: Two-microelectrode voltage clamp, modulation of GABA EC10 response in Xenopus oocytes, α5β3γ2; assay type: cell-based; parameters: expressed in transfected cells; host or cells: Xenopus laevis oocytes; conditions: % change of submaximal (EC10) response to GABA at 30×Ki
Protocol: (§1) Table 2b. […] Effect at human GABA A α5 receptors: % change of a submaximal (EC10) response to GABA determined at 30×Ki value from the flumazenil binding assay.
(§2) Subtype-selective effects were determined on cloned receptors expressed in Xenopus oocytes. Human recombinant GABA A receptors were expressed in Xenopus laevis oocytes. Current responses were evoked in two-microelectrode voltage-clamp condition by applying an EC10 of GABA before and during the co-application of the test compound. Response amplitudes in the presence of the test compound are expressed as percentage of the amplitudes before drug addition.

human GABA A α1β2/3γ2 [6] = molecular target: T2, human GABA A α1β2/3γ2; experiment: Two-microelectrode voltage clamp, modulation of GABA EC10 response in Xenopus oocytes, α1β2/3γ2; assay type: cell-based; parameters: expressed in transfected cells; host or cells: Xenopus laevis oocytes; conditions: % change of EC10 GABA response at 3 μM or at 30×Ki if Ki below 0.1 μM
human GABA A α2β3γ2 [7] = molecular target: T3, human GABA A α2β3γ2; experiment: Two-microelectrode voltage clamp, modulation of GABA EC10 response in Xenopus oocytes, α2β3γ2; assay type: cell-based; parameters: expressed in transfected cells; host or cells: Xenopus laevis oocytes; conditions: % change of EC10 GABA response at 3 μM or at 30×Ki if Ki below 0.1 μM
Protocol: as §1, §2

human GABA A α3β3γ2 [8] = molecular target: T4, human GABA A α3β3γ2; experiment: Two-microelectrode voltage clamp, modulation of GABA EC10 response in Xenopus oocytes, α3β3γ2; assay type: cell-based; parameters: expressed in transfected cells; host or cells: Xenopus laevis oocytes; conditions: % change of EC10 GABA response at 3 μM or at 30×Ki if Ki below 0.1 μM
Protocol: as §1, §2

[9] = [3H]flumazenil competition, human α5β3γ2, read-out: hKi α5
[10] = [3H]flumazenil competition, human α1β2/3γ2, read-out: hKi α1
[11] = [3H]flumazenil competition, human α2β3γ2, read-out: hKi α2
[12] = [3H]flumazenil competition, human α3β3γ2, read-out: hKi α3

Row | Compound | Ki (human GABA A α5β3γ2 [1]; [9]) [nM] | hKi α1/hKi α5 (human GABA A α1β2/3γ2 [2]) | hKi α2/hKi α5 (human GABA A α2β3γ2 [3]) | hKi α3/hKi α5 (human GABA A α3β3γ2 [4]) | Ki (human GABA A α5β3γ2 [1]) [nM] | Ki (human GABA A α1β2/3γ2 [2]; [10]) [nM] | Ki (human GABA A α2β3γ2 [3]; [11]) [nM] | Ki (human GABA A α3β3γ2 [4]; [12]) [nM] | Efficacy GABA A α5β3γ2 (human GABA A α5β3γ2 [5]) [%] | Efficacy GABA A α1β2/3γ2 (human GABA A α1β2/3γ2 [6]) | Efficacy GABA A α2β3γ2 (human GABA A α2β3γ2 [7]) | Efficacy GABA A α3β3γ2 (human GABA A α3β3γ2 [8]) | Ki (human GABA A α1β2/3γ2 [2]) [nM] | Ki (human GABA A α2β3γ2 [3]) [nM] | Ki (human GABA A α3β3γ2 [4]) [nM]
1 | Cc1onc(-c2ccccc2)c1COc1ccc(C(=O)N2CCn3cnnc3C2)cn1 [Compound P1, (5,6-Dihydro-8H-[1,2,4]triazolo[4,3-a]pyrazin-7-yl)-[6-(5-methyl-3-phenyl-isoxazol-4-ylmethoxy)-pyridin-3-yl]-methanone] | 29.9 |  |  |  |  |  |  |  |  |  |  |  |  |  | 
2 | FC(F)c1ccc2c(c1)-c1ncnn1Cc1c(Cl)ncn1-2 [Compound 8588, 10-Chloro-3-difluoromethyl-9H-imidazo[1,5-a][1,2,4]triazolo[1,5-d][1,4]benzodiazepine] |  | 19 | 37 | 15 |  |  |  |  |  |  |  |  |  |  | 
3 | FC(F)c1ncn2c1Cn1ncnc1-c1ccccc1-2 [Compound 8583, 10-Difluoromethyl-9H-imidazo[1,5-a][1,2,4]triazolo[1,5-d][1,4]benzodiazepine] |  | 18 | 9 | 7 |  |  |  |  |  |  |  |  |  |  | 
4 | Cc1ncn2c1Cn1nc(CN3CCCC3=O)nc1-c1cc(Br)ccc1-2 [Compound 8591, 3-Bromo-10-methyl-6-(2-oxo-pyrrolidin-1-ylmethyl)-9H-imidazo[1,5-a][1,2,4]triazolo[1,5-d][1,4]benzodiazepine] |  | 88 | 94 | 73 | 7.1 | 624 | 669 | 515 | −31 | +4% | −7% | +23% |  |  | 
5 | Cc1nc2n(n1)Cc1c(Cl)ncn1-c1ccc(C#N)cc1-2 [Compound 8587, 10-Chloro-3-cyano-6-methyl-9H-imidazo[1,5-a][1,2,4]triazolo[1,5-d][1,4]benzodiazepine] |  | 23 | 13 | 10 | 10.9 | 250 | 141 | 106 | −42 | −28% |  |  |  |  | 
6 | Cc1nc2n(n1)Cc1c(CF)ncn1-c1ccc(Cl)cc1-2 [Compound 8584, 3-Chloro-10-fluoromethyl-6-methyl-9H-imidazo[1,5-a][1,2,4]triazolo[1,5-d][1,4]benzodiazepine] |  | 50 | 72 | 47 |  | 125 |  |  |  |  |  |  |  |  | 
7 | Clc1ccc2c(c1)-c1ncnn1Cc1c(Cl)ncn1-2 [Compound 8586, 3,10-Dichloro-9H-imidazo[1,5-a][1,2,4]triazolo[1,5-d][1,4]benzodiazepine] |  | 7 | 12 | 7 | 2.1 |  |  |  | −33 | −5% | +2% | +7% | 15.3 | 23.7 | 14
8 | Cc1onc(-c2ccccc2)c1COc1ccc(C(=O)N2CC3(COC3)C2)cn1 [Compound Q1, [6-(5-Methyl-3-phenyl-isoxazol-4-ylmethoxy)-pyridin-3-yl]-(2-oxa-6-aza-spiro[3.3]hept-6-yl)-methanone] | 15.1 | 42 | 29 | 26 |  | 633 | 438 | 400 | −35 | −11% | −18% | −17% |  |  | 
9 | Cc1onc(-c2ccc(F)cn2)c1COc1ccc(C(=O)NC(C)C)cn1 [Compound U1] |  |  |  |  |  |  |  |  | −33 | −15% | −34% | −21% |  |  | 
10 | Clc1ncn2c1Cn1ncnc1-c1ccccc1-2 [Compound 8585, 10-Chloro-9H-imidazo[1,5-a][1,2,4]triazolo[1,5-d][1,4]benzodiazepine] |  | 14 | 5 | 2 |  |  |  |  | −41 | −37% |  |  |  |  | 
11 | N#Cc1ccc2c(c1)-c1ncnn1Cc1c(C(F)F)ncn1-2 [Compound 8582, 3-Cyano-10-difluoromethyl-9H-imidazo[1,5-a][1,2,4]triazolo[1,5-d][1,4]benzodiazepine] |  | 16 | 15 | 6 |  | 256 |  |  | −37 | −21% |  |  |  |  | 
12 | Cc1nc2n(n1)Cc1c(Cl)ncn1-c1ccc(Br)cc1-2 [Compound 8589, 3-Bromo-10-chloro-6-methyl-9H-imidazo[1,5-a][1,2,4]triazolo[1,5-d][1,4]benzodiazepine] |  | 37 | 37 | 35 | 6.1 |  |  |  |  |  |  |  | 226 | 229 | 216
13 | Cc1onc(-c2ccc(Cl)cn2)c1COc1ccc(C(=O)N2CCSCC2)cn1 [Compound W1, {6-[3-(5-Chloro-pyridin-2-yl)-5-methyl-isoxazol-4-ylmethoxy]-pyridin-3-yl}-thiomorpholin-4-yl-methanone] | 0.4 | 87 | 27 | 44 |  | 34.6 | 10.7 | 17.7 |  |  |  |  |  |  | 
14 | FCc1ncn2c1Cn1ncnc1-c1cc(F)ccc1-2 [Compound 8580, 3-Fluoro-10-fluoromethyl-9H-imidazo[1,5-a][1,2,4]triazolo[1,5-d][1,4]benzodiazepine] |  | 5 | 3 | 3 |  |  |  |  | −35 |  |  |  | 43.9 |  | 
15 | Cc1onc(-c2ccccn2)c1COc1ccc(C(=O)N2CCOCC2)cn1 [Compound T1, [6-(5-Methyl-3-pyridin-2-yl-isoxazol-4-ylmethoxy)-pyridin-3-yl]-morpholin-4-yl-methanone] | 14.6 | 32 | 20 | 27 |  | 468 | 293 | 387 | −31 | −3% | +5% | +9% |  |  | 
16 | Cc1onc(-c2ccc(F)cn2)c1COc1ccc(C(=O)N2CCS(=O)(=O)CC2)cn1 [Compound V1, (1,1-Dioxo-1λ,6-thiomorpholin-4-yl)-{6-[3-(5-fluoro-pyridin-2-yl)-5-methyl-isoxazol-4-ylmethoxy]-pyridin-3-yl}-methanone] | 1.2 | 119 | 44 | 63 |  | 143 | 53.3 | 76.1 | −33 | 0% | +9% | +16% |  |  | 
17 | Cc1onc(-c2ccccc2)c1COc1ccc(C(=O)NC(C)C)cn1 [Compound O1, N-Isopropyl-6-(5-methyl-3-phenyl-isoxazol-4-ylmethoxy)-nicotinamide] | 1.3 | 388 | 77 | 85 |  | 504 | 101 | 110 | −50 | −19% | −34% | −43% |  |  | 
18 | Fc1ccc2c(c1)-c1ncnn1Cc1c(Br)ncn1-2 [Compound 8590, 10-Bromo-3-fluoro-9H-imidazo[1,5-a][1,2,4]triazolo[1,5-d][1,4]benzodiazepine] |  | 4 | 7 | 8 |  |  |  |  |  |  |  |  |  |  | 
19 | Cc1onc(-c2ccc(Cl)cc2)c1COc1ccc(C(=O)N2CCOCC2)cn1 [Compound S1, {6-[3-(4-Chloro-phenyl)-5-methyl-isoxazol-4-ylmethoxy]-pyridin-3-yl}-morpholin-4-yl-methanone] | 5.4 | 102 | 39 | 41 |  | 551 | 209 | 220 |  |  |  |  |  |  | 
